Key:
Wistar rats = assay: Induction of suprahyoid muscle twitching in urethane anaesthetised Wistar rats; type: in vivo; conditions: Rattus norvegicus, ip, urethane anaesthetised Wistar rats pretreated with nialamide; read-out: MED, increase of amplitude and/or rate of suprahyoid muscle twitch
Text: (§1) Benzodiazepine inverse agonists properties are indicated by the following tests.
(c) […] of suprahyoid muscle twitching in urethane anaesthetised Wistar rats [James & Gardner--Europ. J. Pharmacol. 113, 223-8 (1985)]. Wistar rats pretreated with nialamide are anaesthetised with urethane and the suprahyoid muscles exposed. These muscles spontaneously twitch and active compounds increase the amplitude and/or rate of twitch.

benzodiazepine receptor = assay: Benzodiazepine receptor binding (FRB), [3H]-flunitrazepam displacement; conditions: 0.6 nM [3H] flunitrazepam, rat forebrain membrane preparations; read-out: FRB (IC50, inhibition of specific binding of [3H]-flunitrazepam)
Method: The compounds of formula I are agents which interact with benzodiazepine receptors in the brain, and are useful as minor tranquillizers and for the treatment of obesity or cognitive impairment. Screening for benzodiazepine receptor binding (FRB) was carried out by the method described in published British Patent No. 2,128,989. The values given in Table II are expressed in terms of IC50 (nM).
The affinity of the compounds for the benzodiazepine receptor was assessed using the radioligand [^3 H]-flunitrazepam by modification of the original radioceptor binding method of SQUIRES et al [Nature, (1977), Vol. 266, p. 732].

CD1 mice = assay: Potentiation of seizures induced by subcutaneous injection of leptazol to CD1 mice; type: in vivo; conditions: Mus musculus, ip, 0.5 h, i.p., 30 mins pretest, read-out: ED50, potentiation of leptazol-induced tonic seizures
Method: as §1
(b) Potentiation of seizures induced by subcutaneous injection of leptazol to CD1 mice.
A dose of leptazol is selected to give 10 to 20% tonic seizures in untreated CD1 mice. Active compounds increase the percentage of tonic seizures and the ED50 is calculated by the method of Lichfield and Wilcoxon (J. Pharmacol Exp. Ther. (1949) 96, 99).

DBA2 mice = assay: Potentiation of threshold seizures induced by audiogenic stimulation in DBA2 mice; type: in vivo; conditions: Mus musculus, ip, 0.5 h, i.p., 30 mins pretest, read-out: ED50, potentiation of audiogenic threshold seizures to full tonic seizures
Method: as §1
(a) Potentiation of threshold seizures induced by audiogenic stimulation in DBA2 mice [Jensen et al--Life Sciences 33, 393-9 (1983)], DBA2 mice are subjected to audio stimulation. The threshold seizure characteristics (myoclonus, running) are potentiated by active compounds to full tonic seizures and ED50 is calculated.

Row | SMILES | IC50 (benzodiazepine receptor) [nM] | other results
1 | CCc1c(OC)nc2nc(-c3nc(C)cs3)cn2c1C [Example 1, 6-Ethyl-7-methoxy-5-methyl-2-(4-methylthiazol-2-yl)-imidazo[1,2-a]pyrimidine] | 112 | minimal effective dose (Wistar rats): 10 mg/kg; ED50 (CD1 mice): 50 mg/kg; ED50 (DBA2 mice): 3 mg/kg
2 | CCc1csc(-c2cn3c(C)c(CC)c(OC)nc3n2)n1 [Example 2, 6-Ethyl-2-(4-ethylthiazol-2-yl)-7-methoxy-5-methylimidazo[1,2-a]pyrimidine] | 220 | 
3 | CCc1c(OC)nc2nc(-c3nc(C)c(C)s3)cn2c1C [Example 3, 2-(4,5-Dimethylthiazol-2-yl)-6-ethyl-7-methoxy-5-methylimidazo[1,2-a]pyrimidine] | 2500 | 
4 | CCOC(=O)c1csc(-c2cn3c(C)c(CC)c(OC)nc3n2)n1 [Example 4, Ethyl 2-(6-ethyl-7-methoxy-5-methylimidazo[1,2-a]pyrimidin-2-yl)-thiazole-4-carboxylate] | 2800 | 
5 | CCc1c(SC)nc2nc(-c3nc(C)cs3)cn2c1C [Example 5, 6-Ethyl-5-methyl-2-(4-methylthiazol-2-yl)-7-methylthioimidazo[1,2-a]pyrimidine] | 80 | 
6 | CCc1c(OC)nc2nc(-c3nc(C(F)(F)F)cs3)cn2c1C [Example 6, 6-Ethyl-7-methoxy-5-methyl-2-(4-trifluoromethylthiazol-2-yl)-imidazol[1,2-a]pyrimidine] | 2000 | 
7 | COc1nc2nc(-c3nc(C)cs3)cn2c2c1CCCC2 [Example 7, 5-Methoxy-2-(4-methylthiazol-2-yl)-6,7,8,9-tetrahydroimidazo[1,2-a]quinazoline] | 22 | 
8 | C=CCc1c(OC)nc2nc(-c3nc(C)cs3)cn2c1C [Example 8, 6-Allyl-7-methoxy-5-methyl-2-(4-methylthiazol-2-yl)imidazo[1,2-a]pyrimidine] | 100 | 
9 | CCCc1c(OC)nc2nc(-c3nc(C)cs3)cn2c1C [Example 9, 7-Methoxy-5-methyl-2-(4-methylthiazol-2-yl)-6-propylimidazo[1,2-a]pyrimidine] | 100 | 
10 | CCc1c(OC)nc2nc(-c3nccs3)cn2c1C [Example 10, 6-Ethyl-7-methoxy-5-methyl-2-(thiazol-2-yl)imidazo[1,2-a]pyrimidine] | 200 | 

From patent US4925846A, “2-thiazolyl-imidazo[1,2,-a]pyrimidines” (Roussel Uclaf, priority 1986, dated 1990)
